Test results reported in patent publication US20240376052A1, “N-SUBSTITUTED INDOLE DERIVATIVES AS SEROTONERGIC AGENTS USEFUL FOR THE TREATMENT OF DISORDERS RELATED THERETO” (Mindset Pharma Inc., priority 2021, published 2024).
Like-named read-outs stand apart in the source and are kept apart here.

Experiments:
[1] = target: human 5-HT2A receptor (Homo sapiens (Human), UniProt P28223); experiment: Human 5-HT2A radioligand binding assay ([3H]-ketanserin)
[2] = Liver microsomes stability, dog; conditions: for Remaining Percentage (%): Dog
[3] = Liver microsomes stability, human; conditions: for Remaining Percentage (%): Human
Description: (§1) The objective of this study was to estimate in vitro metabolic stability of representative compounds of the application in pooled human and male mouse liver microsomes. The concentrations of parent compounds in reaction systems were evaluated by LC-MS/MS for estimating the stability in pooled human and male mouse liver microsomes. The in vitro intrinsic clearances of test compounds were determined as well.
(§2) A master solution in the “Incubation Plate” containing phosphate buffer, ultra-pure H2O, MgCl2 solution and liver microsomes was made according to Table 3. The mixture was pre-warmed at 37° C. water bath for 5 minutes.
(§3) 40 μL of 10 mM NADPH solution was added to each well. The final concentration of NADPH was 1 mM. The negative control samples were prepared by replacing NADPH with 40 μL of ultra-pure H2O. Samples were prepared in duplicate. Negative controls were prepared in singlet.
(§4) The reaction was started with the addition of 4 μL of 200 μM test compounds or control compounds to each master solution to get the final concentration of 2 μM. This study was performed in duplicate.
(§5) Aliquots of 50 μL were taken from the reaction solution at 0, 15, 30, 45 and 60 minutes. The reaction solutions were stopped by the addition of 4 volumes of cold methanol with IS (100 nM alprazolam, 200 nM imipramine, 200 nM labetalol and 2 μM ketoprofen). Samples were centrifuged at 3,220 g for 40 minutes. Aliquot of 90 μL of the supernatant was mixed with 90 μL of ultra-pure H2O and then was used for LC-MS/MS analysis.
(§6) LC/MS analysis was performed for all samples from this study using a Shimadzu liquid chromatograph separation system equipped with degasser DGU-20A5R; solvent delivery unit LC-30AD; system controller SIL-30AC; column oven CTO-30A; CTC Analytics HTC PAL System. Mass spectrometric analysis was performed using an Triple Quad™ 5500 instrument.
(§7) All calculations were carried out using Microsoft Excel. Peak area ratios of test compound to internal standard (listed in the below table) were determined from extracted ion chromatograms.
(§8) All calculations were carried out using Microsoft Excel. Peak areas were determined from extracted ion chromatograms. The slope value, k, was determined by linear regression of the natural logarithm of the remaining percentage of the parent drug vs. incubation time curve.
(§9) The in vitro half-life (in vitro t1/2) was determined from the slope value:
(§10) Conversion of the in vitro t1/2(min) into the in vitro intrinsic clearance (in vitro CLint, in μL/min/mg proteins) was done using the following equation (mean of duplicate determinations): […]

[4] = Liver microsomes stability, rat; conditions: for Remaining Percentage (%): Rat
Description: as §1, §2, §3, §4, §5, §6, §7, §8, §9, §10

[5] = Liver microsomes stability, mouse; conditions: for Remaining Percentage (%): Mouse
Description: as §1, §2, §3, §4, §5, §6, §7, §8, §9, §10

[6] = [3H]-ketanserin competition, read-out: h5-HT2A IC50

CCCCC/C=C\C/C=C\CCCCCCCC(=O)n1cc(C2CCN(C)C2)c2ccccc21 (racemic) [Compound I-12, (9Z,12Z)-1-(3-(1-Methylpyrrolidin-3-yl)-1H-indol-1-yl)octadeca-9,12-dien-1-one]
IC50 [1, 6]: 2000 to 5000 nM

CCCCC/C=C\C/C=C\CCCCCCCC(=O)n1cc(C2CCN(C)C2)c2cc(OC)ccc21 (racemic) [Compound I-13, (9Z,12Z)-1-(5-Methoxy-3-(1-methylpyrrolidin-3-yl)-1H-indol-1-yl)octadeca-9,12-dien-1-one]
IC50 [1, 6]: 2000 to 5000 nM

[2H]C([2H])([2H])Oc1ccc2c(c1)c(C([2H])([2H])C([2H])([2H])N(C([2H])([2H])[2H])C([2H])([2H])[2H])cn2C(=O)CCCCCCC/C=C\C/C=C\CCCCC [Compound I-4, (9Z,12Z)-1-(3-(2-(Bis(methyl-d3)amino)ethyl-1,1,2,2-d4)-5-(methoxy-d3)-1H-indol-1-yl)octadeca-9,12-dien-1-one]
IC50 [1]: < 2000 nM

CCCCC/C=C\C/C=C\CCCCCCCC(=O)n1cc(C[C@H]2CCCN2C)c2ccccc21 [Compound I-5, (9Z,12Z)-1-(3-(((R)-1-Methylpyrrolidin-2-yl)methyl)-1H-indol-1-yl)octadeca-9,12-dien-1-one]
IC50 [1]: < 2000 nM | Predicted hepatic CL ([2]; Dog liver microsomes): 21.51 mL/min/kg | Remaining Percentage (%) ([2]; With NADPH, 0 min): 100.00% | Remaining Percentage (%) ([2]; With NADPH, 30 min): 65.44% | Remaining Percentage (%) ([2]; With NADPH, 60 min): 42.66% | Remaining Percentage (%) ([2]; Without NADPH, 0 min): 100.00% | Remaining Percentage (%) ([2]; Without NADPH, 30 min): 87.66% | Remaining Percentage (%) ([2]; Without NADPH, 60 min): 90.58% | CLint scaled at 2 μM ([2]; dog, microsomes): 70.8 mL/min/kg | half-life at 2 μM ([2]; dog, microsomes): 0.814 h | microsomal CLint at 2 μM ([2]; dog, microsomes): 28.4 µL/min/mg | Predicted hepatic CL ([3]; Human liver microsomes): 6.42 mL/min/kg | Remaining Percentage (%) ([3]; With NADPH, 0 min): 100.00% | Remaining Percentage (%) ([3]; With NADPH, 30 min): 86.52% | Remaining Percentage (%) ([3]; With NADPH, 60 min): 80.05% | Remaining Percentage (%) ([3]; Without NADPH, 0 min): 100.00% | Remaining Percentage (%) ([3]; Without NADPH, 30 min): 85.69% | Remaining Percentage (%) ([3]; Without NADPH, 60 min): 80.25% | CLint scaled at 2 μM ([3]; human, microsomes): 9.3 mL/min/kg | half-life at 2 μM ([3]; human, microsomes): 3.11 h | microsomal CLint at 2 μM ([3]; human, microsomes): 7.42 µL/min/mg | Predicted hepatic CL ([4]; Rat liver microsomes): 24.83 mL/min/kg | Remaining Percentage (%) ([4]; With NADPH, 0 min): 100.00% | Remaining Percentage (%) ([4]; With NADPH, 30 min): 69.74% | Remaining Percentage (%) ([4]; With NADPH, 60 min): 46.98% | Remaining Percentage (%) ([4]; Without NADPH, 0 min): 100.00% | Remaining Percentage (%) ([4]; Without NADPH, 30 min): 97.35% | Remaining Percentage (%) ([4]; Without NADPH, 60 min): 95.87% | CLint scaled at 2 μM ([4]; rat, microsomes): 45.1 mL/min/kg | half-life at 2 μM ([4]; rat, microsomes): 0.917 h | microsomal CLint at 2 μM ([4]; rat, microsomes): 25.2 µL/min/mg | Predicted hepatic CL ([5]; Mouse liver microsomes): 41.60 mL/min/kg | Remaining Percentage (%) ([5]; With NADPH, 0 min): 100.00% | Remaining Percentage (%) ([5]; With NADPH, 30 min): 74.79% | Remaining Percentage (%) ([5]; With NADPH, 60 min): 58.84% | Remaining Percentage (%) ([5]; Without NADPH, 0 min): 100.00% | Remaining Percentage (%) ([5]; Without NADPH, 30 min): 80.19% | Remaining Percentage (%) ([5]; Without NADPH, 60 min): 90.42% | CLint scaled at 2 μM ([5]; male, mouse, microsomes): 77.3 mL/min/kg | half-life at 2 μM ([5]; male, mouse, microsomes): 1.31 h | microsomal CLint at 2 μM ([5]; male, mouse, microsomes): 17.7 µL/min/mg
